Measured values as given in patent publication US20240269139A1, “COMPOUNDS FOR TARGETED PROTEIN DEGRADATION OF KINASES” (DANA-FARBER CANCER INSTITUTE, INC., priority 2020, published 2024).
Read-outs that look alike come from different tables or passages of the source.

What was measured:
Format in all cases: cell-based
[1] = molecular target: protein kinases (human kinome) (Homo sapiens, UniProt P51451); settings: for logFC of BLK: BLK P51451, experiment wp016; for logFC of BLK (P51451): down; for logFC BLK: BLK (P51451), direction down
[2] = molecular target: T1, protein kinases (human kinome) (Homo sapiens, UniProt O14965)
T1 sequence (O14965 1-403): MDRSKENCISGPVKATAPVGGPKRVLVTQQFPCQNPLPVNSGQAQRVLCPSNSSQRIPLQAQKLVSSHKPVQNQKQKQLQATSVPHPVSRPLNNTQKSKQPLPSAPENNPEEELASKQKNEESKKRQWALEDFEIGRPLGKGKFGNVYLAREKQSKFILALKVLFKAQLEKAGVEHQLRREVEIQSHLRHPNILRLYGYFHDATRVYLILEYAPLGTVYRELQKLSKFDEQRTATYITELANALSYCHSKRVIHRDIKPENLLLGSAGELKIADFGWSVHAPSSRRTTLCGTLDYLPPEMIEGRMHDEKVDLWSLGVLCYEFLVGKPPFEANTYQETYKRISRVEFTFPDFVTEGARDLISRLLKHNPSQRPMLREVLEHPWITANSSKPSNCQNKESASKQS

[3] = test system: protein kinases (human kinome); settings: for logFC of SRC: Accession P12931-2; for logFC LCK: accession P06239-3; for logFC LCK / logFC LCK (P06239-3): direction of change down; for logFC RPS6KA1: RPS6KA1 (Q15418-2); for logFC of CDK17: Accession Q00537-2
[4] = molecular target: protein kinases (human kinome) (Homo sapiens, UniProt P16591); settings: for logFC of FER (P16591-1): down; for logFC of FER: FER P16591-1
[5] = molecular target: protein kinases (human kinome) (Homo sapiens, UniProt P53671); settings: for logFC LIMK2: LIMK2 (P53671), down; for logFC of LIMK2: LIMK2 P53671
[6] = CDK9 (P50750-2) protein abundance, degrader vs DMSO, down
[7] = Experiment wp016, direction down
[8] = SRC (P12931-2) protein abundance, degrader vs DMSO, down
[9] = AURKB Q96GD4-5, experiment wp131
[10] = AURKB Q96GD4-5, experiment wp137
[11] = Accession O60566-3, experiment wp137, direction down
[12] = BUB1B (O60566-3), experiment wp137
[13] = Experiment wp137, direction down

Sequence of protein kinases (human kinome) (Homo sapiens, UniProt P51451) (P51451 whole entry): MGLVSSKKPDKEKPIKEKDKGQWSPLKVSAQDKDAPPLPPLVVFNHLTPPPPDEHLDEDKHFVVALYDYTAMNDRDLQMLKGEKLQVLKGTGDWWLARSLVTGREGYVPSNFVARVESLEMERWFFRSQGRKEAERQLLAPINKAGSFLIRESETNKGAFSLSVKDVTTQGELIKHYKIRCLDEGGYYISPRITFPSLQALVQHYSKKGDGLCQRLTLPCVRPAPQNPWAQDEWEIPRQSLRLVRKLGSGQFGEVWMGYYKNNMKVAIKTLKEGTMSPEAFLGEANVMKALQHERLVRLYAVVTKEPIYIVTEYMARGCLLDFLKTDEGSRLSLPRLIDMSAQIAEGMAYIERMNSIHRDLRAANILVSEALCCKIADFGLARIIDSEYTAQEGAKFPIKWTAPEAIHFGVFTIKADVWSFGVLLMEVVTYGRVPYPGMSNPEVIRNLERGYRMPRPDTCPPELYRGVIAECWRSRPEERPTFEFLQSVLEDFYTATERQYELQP
Sequence of protein kinases (human kinome) (Homo sapiens, UniProt P16591) (P16591 whole entry): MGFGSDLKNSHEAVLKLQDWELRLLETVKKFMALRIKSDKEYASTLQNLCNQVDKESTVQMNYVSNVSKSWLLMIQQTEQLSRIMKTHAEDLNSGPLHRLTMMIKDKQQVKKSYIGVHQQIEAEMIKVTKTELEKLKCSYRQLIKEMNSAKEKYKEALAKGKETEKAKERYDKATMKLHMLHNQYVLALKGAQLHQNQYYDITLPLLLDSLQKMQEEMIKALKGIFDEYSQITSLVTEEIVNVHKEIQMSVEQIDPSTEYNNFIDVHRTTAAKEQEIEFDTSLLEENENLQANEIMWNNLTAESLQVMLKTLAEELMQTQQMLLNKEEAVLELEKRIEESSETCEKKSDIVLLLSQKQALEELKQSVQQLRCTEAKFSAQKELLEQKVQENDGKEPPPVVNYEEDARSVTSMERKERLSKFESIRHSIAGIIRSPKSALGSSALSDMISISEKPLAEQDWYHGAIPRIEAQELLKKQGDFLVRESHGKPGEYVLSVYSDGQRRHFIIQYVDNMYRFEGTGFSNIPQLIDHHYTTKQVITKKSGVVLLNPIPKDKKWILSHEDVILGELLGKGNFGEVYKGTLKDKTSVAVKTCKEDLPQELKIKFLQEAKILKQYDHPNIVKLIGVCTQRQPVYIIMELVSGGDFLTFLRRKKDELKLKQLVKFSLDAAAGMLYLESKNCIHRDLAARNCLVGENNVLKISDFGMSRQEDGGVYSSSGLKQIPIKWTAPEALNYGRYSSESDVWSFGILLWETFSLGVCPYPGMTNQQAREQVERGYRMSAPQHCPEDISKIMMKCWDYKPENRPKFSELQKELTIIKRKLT
Sequence of protein kinases (human kinome) (Homo sapiens, UniProt P53671) (P53671 whole entry): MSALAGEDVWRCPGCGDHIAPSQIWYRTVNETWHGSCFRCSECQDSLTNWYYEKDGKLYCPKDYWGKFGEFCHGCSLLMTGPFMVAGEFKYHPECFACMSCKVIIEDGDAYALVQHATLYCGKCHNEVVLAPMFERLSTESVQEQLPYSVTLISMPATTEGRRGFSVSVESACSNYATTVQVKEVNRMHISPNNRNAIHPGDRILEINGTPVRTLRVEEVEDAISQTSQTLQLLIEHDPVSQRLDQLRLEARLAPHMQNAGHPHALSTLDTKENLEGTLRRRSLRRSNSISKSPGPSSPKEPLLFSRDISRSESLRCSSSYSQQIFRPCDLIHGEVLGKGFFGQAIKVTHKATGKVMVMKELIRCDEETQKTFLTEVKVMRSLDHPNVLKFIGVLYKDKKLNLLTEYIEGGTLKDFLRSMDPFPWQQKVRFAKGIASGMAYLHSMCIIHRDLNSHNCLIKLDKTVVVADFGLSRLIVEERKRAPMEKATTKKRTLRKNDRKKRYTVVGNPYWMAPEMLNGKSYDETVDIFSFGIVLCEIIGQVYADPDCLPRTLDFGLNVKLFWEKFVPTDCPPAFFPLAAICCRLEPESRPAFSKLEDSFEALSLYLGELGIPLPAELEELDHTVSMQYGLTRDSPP

CC(C)S(=O)(=O)c1ccccc1Nc1nc(Nc2ccc(N3CCN(CCOCCNC(=O)CNc4ccc5c(c4)C(=O)N(C4CCC(=O)NC4=O)C5=O)CC3)cc2)ncc1Cl (stereo not shown) [SK.3.93]
logFC of BLK [1]: −1.502 | logFC of BLK (P51451) ([1]; Experiment wp016): −1.502 | logFC AURKA (O14965) ([2]; experiment wp016): −1.823 | logFC of SRC ([3]; experiment wp016): −0.3456 | logFC [3, 6]: −0.6376 | logFC PRKAA1 (Q13131-2) [3, 7]: −0.4738 | logFC LCK ([3]; experiment wp016): −0.7798 | logFC RPS6KA1 ([3]; experiment wp016): −0.3413 | logFC [3, 8]: −0.3456 | logFC CDK9 (P50750-2) ([3]; experiment wp016): −0.6376 | logFC PRKAA1 (Q13131-2) ([3]; experiment wp016): −0.4738 | logFC RPS6KA1 (Q15418-2) ([3]; experiment wp016): −0.3413 | logFC LCK (P06239-3) ([3]; experiment wp016): −0.7798 | logFC of FER (P16591-1) ([4]; Experiment wp016): −2.64 | logFC of FER ([4]; experiment wp016): −2.64 | logFC LIMK2 ([5]; experiment wp016): −1.01 | logFC of LIMK2 ([5]; experiment wp016): −1.01

CC(C)S(=O)(=O)c1ccccc1Nc1nc(Nc2ccc(N3CCN(CCOCCOCCNC(=O)CNc4cccc5c4C(=O)N(C4CCC(=O)NC4=O)C5=O)CC3)cc2)ncc1Cl (stereo not shown) [TL12.186]
logFC BLK ([1]; experiment wp131): −2.497 | logFC BLK ([1]; experiment wp137): −2.115 | logFC of BLK [1]: −1.475 | logFC of BLK (P51451) ([1]; Experiment wp016): −1.475 | logFC of BLK (P51451) ([1]; Experiment wp131): −2.497 | logFC of BLK (P51451) ([1]; Experiment wp137): −2.115 | logFC AURKA (O14965) ([2]; experiment wp016): −1.758 | logFC AURKA (O14965) ([2]; experiment wp131): −3.193 | logFC AURKA (O14965) ([2]; experiment wp137): −2.642 | logFC [3, 9]: −0.9938 | logFC AURKB [3, 9]: −0.9938 | logFC [3, 10]: −0.9711 | logFC AURKB [3, 10]: −0.9711 | logFC BUB1B ([3]; Accession O60566-3, experiment wp131, direction down): −0.541 | logFC BUB1B [3, 11]: −0.5516 | logFC of SRC ([3]; experiment wp016): −0.3573 | logFC of SRC ([3]; experiment wp131): −0.7777 | logFC of SRC ([3]; experiment wp137): −0.5738 | logFC CSNK1D ([3]; Accession P48730-2, experiment wp137, direction down): −0.4721 | logFC of CDK17 ([3]; experiment wp137): −0.7026 | logFC BUB1B ([3]; BUB1B (O60566-3), experiment wp131): −0.541 | logFC BUB1B [3, 12]: −0.5516 | logFC CSNK1D ([3]; CSNK1D P48730-2, experiment wp137): −0.4721 | logFC PRKAA1 (Q13131-2) [3, 7]: −0.434 | logFC PRKAA1 (Q13131-2) ([3]; Experiment wp131, direction down): −0.5988 | logFC PRKAA1 (Q13131-2) [3, 13]: −0.641 | logFC LCK ([3]; experiment wp016): −0.7129 | logFC LCK ([3]; experiment wp131): −1.455 | logFC LCK ([3]; experiment wp137): −1.373 | logFC ([3]; MARK2 Q7KZI7-14, experiment wp131): −0.4868 | logFC ([3]; PIP5K1A (Q99755-3), experiment wp131): −0.3436 | logFC ([3]; PIP5K1A (Q99755-3), experiment wp137): −0.4526 | logFC RPS6KA1 ([3]; experiment wp137): −0.4514 | logFC CDK9 (P50750-2) ([3]; experiment wp016): −0.6414 | logFC PRKAA1 (Q13131-2) ([3]; experiment wp016): −0.434 | logFC LCK (P06239-3) ([3]; experiment wp016): −0.7129 | logFC ABL2 (P42684-5) ([3]; experiment wp131): −0.8023 | logFC CDK9 (P50750-2) ([3]; experiment wp131): −1.451 | logFC PRKAA1 (Q13131-2) ([3]; experiment wp131): −0.5988 | logFC of ABL2 (P42684-5) ([3]; experiment wp131): −0.8023 | logFC of MARK2 (Q7KZI7-14) ([3]; experiment wp131): −0.4868 | logFC LCK (P06239-3) ([3]; experiment wp131): −1.455 | logFC CDK9 (P50750-2) ([3]; experiment wp137): −1.511 | logFC PRKAA1 (Q13131-2) ([3]; experiment wp137): −0.641 | logFC RPS6KA1 (Q15418-2) ([3]; experiment wp137): −0.4514 | logFC of CDK17 (Q00537-2) ([3]; experiment wp137): −0.7026 | logFC LCK (P06239-3) ([3]; experiment wp137): −1.373 | logFC of FER (P16591-1) ([4]; Experiment wp016): −2.727 | logFC of FER (P16591-1) ([4]; Experiment wp131): −2.583 | logFC of FER (P16591-1) ([4]; Experiment wp137): −2.329 | logFC of FER ([4]; experiment wp016): −2.727 | logFC of FER ([4]; experiment wp131): −2.583 | logFC of FER ([4]; experiment wp137): −2.329 | logFC LIMK2 ([5]; experiment wp016): −0.7395 | logFC LIMK2 ([5]; experiment wp131): −1.323 | logFC LIMK2 ([5]; experiment wp137): −1.179 | logFC of LIMK2 ([5]; experiment wp016): −0.7395 | logFC of LIMK2 ([5]; experiment wp131): −1.323 | logFC of LIMK2 ([5]; experiment wp137): −1.179

CC(C)S(=O)(=O)c1ccccc1Nc1nc(Nc2ccc(N3CCN(CCOCCOCCC(=O)NCCNc4cccc5c4CN(C4CCC(=O)NC4=O)C5=O)CC3)cc2)ncc1Cl (stereo not shown) [TL13.97]
logFC BLK ([1]; experiment wp137): −2.219 | logFC of BLK (P51451) ([1]; Experiment wp137): −2.219 | logFC AURKA (O14965) ([2]; experiment wp014): −0.3268 | logFC AURKA (O14965) ([2]; experiment wp137): −1.612 | logFC [3, 10]: −0.7523 | logFC AURKB [3, 10]: −0.7523 | logFC BUB1B [3, 11]: −0.3313 | logFC of SRC ([3]; experiment wp137): −0.4824 | logFC of CDK17 ([3]; experiment wp137): −0.5683 | logFC BUB1B [3, 12]: −0.3313 | logFC [3, 6]: −1.37 | logFC PRKAA1 (Q13131-2) [3, 13]: −0.6678 | logFC LCK ([3]; experiment wp137): −0.8721 | logFC RPS6KA1 ([3]; experiment wp137): −0.3757 | logFC [3, 8]: −0.4824 | logFC CDK9 (P50750-2) ([3]; experiment wp137): −1.37 | logFC PRKAA1 (Q13131-2) ([3]; experiment wp137): −0.6678 | logFC RPS6KA1 (Q15418-2) ([3]; experiment wp137): −0.3757 | logFC of CDK17 (Q00537-2) ([3]; experiment wp137): −0.5683 | logFC LCK (P06239-3) ([3]; experiment wp137): −0.8721 | logFC of FER (P16591-1) ([4]; Experiment wp137): −2.412 | logFC of FER ([4]; experiment wp137): −2.412 | logFC LIMK2 ([5]; experiment wp137): −0.9054 | logFC of LIMK2 ([5]; experiment wp137): −0.9054
